Source: patent US20220235030A1, “SELECTIVE HISTAMINE H3 ANTAGONIST ACID ADDITION SALTS AND PROCESS FOR THE PREPARATION THEREOF” (RICHTER GEDEON NYRT., priority 2019, published 2022)
Entries after “also recorded” stand apart in the source; their conditions may differ. Counter-ions that a name gives are not always drawn.

Key:
Assay type in all cases: physicochemical
[1] = Dynamic vapor sorption (DVS) analysis at 25° C., hygroscopicity and deliquescence; parameters: Δm/ΔRH: unit not given beside the values; conditions: for Δm/ΔRH: 25° C.
Description: Determination of the critical relative humidity is feasible by gravimetric method, e.g. with DVS, where relative humidity is changed in suitably selected steps and a sufficiently long time is used to the onset of quasi-equilibrium.
The deliquescence tendency of each salt is characterized by the critical relative humidity (CRH) value (Table 1), which was determined based on the sorption curves measured according to the measurement parameter settings below, with DVS analysis at 25° C. isotherm conditions, according to the following. […]
If the given sorption step is Δm/ΔRH≥0.5, then RH1 is considered to be the critical relative humidity (CRH) value indicating the end point of the physical stability of the substance. The value thus determined is a good match with the onset of a significant monotonic weight gain observed visually on the sorption curve. Above the critical relative humidity value, it is the process of deliquescence of the substance that determines the weight gain observed on the sorption curve.

[2] = Solubility in simulated gastric fluid; conditions: simulated gastric fluid (SGF without pepsin, pH=1.3); dihydrochloride salt
Excerpt: The generally observed hygroscopic nature of the 1-[4-(4-{3-[(2R)-2-methyl-pyrrolidin-1-yl]-propoxy}-phenoxy)-piperidin-1-yl]-ethanone salts is inter alia related to the good solubility thereof.

[3] = 10-day solid stress stability study, HPLC purity test; conditions: dihydrochloride salt
Excerpt: Increased stability to ambient humidity is beneficial for longer-term physical and chemical stability of the active ingredient. The relationship between the reduced hygroscopic nature and the increased chemical stability associated with it is shown in the most preferred citrate salts in comparison to the dihydrochloride salt.

[4] = Thermogravimetric (TG) analysis of thermal stability
Excerpt: The compound of 1-[4-(4-{3-[(2R)-2-methyl-pyrrolidin-1-yl]-propoxy}-phenoxy)-piperidin-1-yl]-ethanone contains a single strongly basic center (pyrrolidine nitrogen), which is capable of forming stoichiometric salt with equimolar hydrochloride, thus the formation of dihydrochloride stoichiometry is not expected in view of the acid/base character of the compound. Based on TG and DSC analysis, the second molar amount of hydrochloride is less strongly bound to the crystal lattice, behaving as a volatile component. […] (FIG. 8). Parallelly to this process, according to the DSC and microscopic analysis, the sample starting from approx. 100° C. melts during decomposition (FIG. 9).

Q: What does the source list for `CC(=O)N1CCC(Oc2ccc(OCCCN3CCC[C@H]3C)cc2)CC1` [diHCl, 1-[4-(4-{3-[(2R)-2-methyl-pyrrolidin-1-yl]-propoxy}-phenoxy)-piperidin-1-yl]-ethanone dihydrochloride salt]?
A: Critical Relative Humidity (CRH) ([1]; DVS at 25° C., RH1 of first sorption step with Δm/ΔRH≥0.5, dihydrochloride salt): 60%; Δm/ΔRH ([1]; RH1 0%, sorption, dihydrochloride salt): 0.0; Δm/ΔRH ([1]; RH1 10%, sorption, dihydrochloride salt): 0.0; Δm/ΔRH ([1]; RH1 20%, sorption, dihydrochloride salt): 0.0; Δm/ΔRH ([1]; RH1 30%, sorption, dihydrochloride salt): 0.0; Δm/ΔRH ([1]; RH1 40%, sorption, dihydrochloride salt): 0.0; Δm/ΔRH ([1]; RH1 50%, sorption, dihydrochloride salt): 0.0; Δm/ΔRH ([1]; RH1 60%, sorption, dihydrochloride salt): 1.7; Δm/ΔRH ([1]; RH1 70%, sorption, dihydrochloride salt): 2.4; Δm/ΔRH ([1]; RH1 80%, sorption, dihydrochloride salt): 2.1; hygroscopicity (in words) ([1]; dihydrochloride salt): highly hygroscopic; relative weight gain ([1]; sorption curve, at 70% RH): 17%; relative weight change ([1]; sorption curve, at 90% RH): 63%; water bound relative to the dried mass ([1]; sorption curve, up to 60% RH): about 0.7%; relative humidity above which high, continuous weight gain (deliquescence) is observed ([1]; sorption, DVS at 25° C., dihydrochloride salt): above 60%; solubility [2]: greater than 59 mM; chemical stability (in words) ([3]; 10-day solid stress: heat, heat and humidity): slightly degraded by heat; also recorded: degrades significantly under the combined effect of heat and humidity; All contaminant (area %) ([3]; 10 days, 40° C., 75% RH, open glass): 59.56% area %; All contaminant (area %) ([3]; 10 days, 50° C., 75% RH, open glass): 51.32% area %; All contaminant (area %) ([3]; 10 days, 50° C., sealed glass): 0.98% area %; All contaminant (area %) ([3]; 10 days, 75° C., sealed glass): 1.50% area %; All contaminant (area %) ([3]; starting sample): 0.85% area %; thermal stability (in words) [4]: thermally poorly stable
